{"source": "patent US10238679B2", "about": "“Antitumor activity of multi-kinase inhibitors in colorectal cancer” (ENTRECHEM, S.L, priority 2014, dated 2019)", "key": {"[1]": {"test_system": "pS6 and Src in HT29 cells", "assay": "Phospho-kinase dot blot array and Western blot, HT29", "format": "cell-based", "details": "500 nM, at 6 hours", "protocol": "(§1) Western-blot and phospho-array kits were used for evaluation of signaling intermediates. SW620 and HT29 cell lines were grown in DMEM 10% of FBS and at 70% confluence were treated with Formula (III) at 500 nM for 6, 12 and 24 hours. Cells were washed with phosphate-buffered saline (PBS) (137 mM NaCl, 2.7 mM KCl, 8 mM Na2HPO4, 1.5 mM KH2PO4) and lysed in ice-cold lysis buffer (20 mM Tris-HCl [pH 7.0], 140 mM NaCl, 50 mM EDTA, 10% glycerol, 1% Nonidet P-40, 1 μM pepstatin, 1 μg/mL aprotinin, 1 μg/mL leupeptin, 1 mM phenylmethyl sulfonyl fluoride, 1 mM sodium orthovanadate). Lysates were centrifuged at 10000 g at 4° C. for 10 minutes. The protein level in the supernatants was quantified using BCA protein assay (Sigma Aldrich). A total of 50 μg of protein of each sample was used for analysis. Samples were then boiled in electrophoresis sample buffer and placed on 6%-15% sodium dodecyl sulfate-polyacrylamide gel electrophoresis (SDS-PAGE) gels, depending on the molecular weight of the proteins to be analyzed. Briefly, after electrophoresis, proteins in gels were transferred to polyvinylidene difluoride membranes (Millipore Corporation). Membranes were blocked in Tris-buffered saline with Tween (TBST) (100 mM Tris [pH 7.5], 150 mM NaCl, 0.05% Tween 20) containing 1% of bovine serum albumin for 1 h and then incubated overnight with the corresponding antibody. […]"}, "[2]": {"test_system": "HT29 cells", "assay": "Cell cycle analysis by flow cytometry (propidium iodide), HT29", "format": "cell-based", "details": "500 nM, 24 h", "protocol": "(§2) Cell cycle analyses and evaluation of apoptosis were performed by flow cytometry using propidium iodide and Annexin V, respectively.\n(§3) For cell cycle analyses, SW620 and HT29 cells were cultured in 100-mm culture dishes, grown to 70% confluence, and treated with 500 nM Formula (III) for 24 h. Cell monolayers were then incubated in trypsin—EDTA and resuspended in 1 mL of PBS. After three washes with PBS, the cell pellets were resuspended in ice cold 70% ethanol for 2 min and centrifuged 5 min at 1800 rpm. The cell pellets were treated with 1 mL of propidium iodide (PI) staining solution (PBS containing 50 μg/mL of PI, 0.5% Tween 20, 0.1 μg/mL RNase A) (BD Biosciencies) and incubated in the dark for 1 h. DNA content and cell cycle analyses were performed by using a FACS canto II flow cytometer and the CellQuest software (BD Biosciences)."}, "[3]": {"test_system": "HT29 cells", "assay": "Apoptosis by Annexin V flow cytometry, HT29", "format": "cell-based", "details": "48 hours", "protocol": "as §2\n(§4) For apoptosis analyses, SW620 and HT29 cell monolayers were incubated in trypsin—EDTA, washed twice with cold PBS, and then resuspended in binding buffer (10 mM HEPES free acid [pH 7.4], 140 mM NaCl, 2.5 mM CaCl2) at a concentration of 1×10^6 cells per mL. A total of 1×10^5 cells were incubated for 15 minutes in the dark with Annexin V-APC (BD Biosciences) and propidium iodide (PI) staining solution (5 μL Annexin […], 10 μL of PI [[…] final concentration], 400 μL binding buffer)."}, "[4]": {"details": "animal models; background statement; cited from earlier work"}, "[5]": {"test_system": "a range of tyrosine and serine/threonine kinases", "details": "biochemical assays; background statement; cited from earlier work"}, "[6]": {"test_system": "SW620 cells", "assay": "Apoptosis by Annexin V flow cytometry, SW620", "format": "cell-based", "details": "48 hours", "protocol": "as §2, §4"}, "[7]": {"test_system": "phosphorylated γH2AX in HT29 cells", "assay": "Western blot of DNA damage marker phosphorylated γH2AX, HT29", "format": "cell-based", "details": "500 nM, time dependent up to 24 h", "protocol": "as §1"}, "[8]": {"test_system": "HT29 cells", "assay": "MTT metabolization, HT29 cell proliferation", "format": "cell-based", "protocol": "(§5) SW620, HT29 and SW48 were grown in DMEM; this medium was purchased from Sigma Aldrich, supplemented with 10% FBS, 100 mU/mL penicillin, 100 μg/mL streptomycin and 2 mM L-glutamine, in a 5% CO2 atmosphere at 37° C. These colorectal cancer cell lines were obtained from the American Type Culture Collection Cell Biology Collection (ATCC) (Manassas, Va.). The medium was changed every 2 days.\n(§6) Cell proliferation and growth experiments were carried out using 3-(4,5-dimethylthiazol-2-yl)-2,5-diphenyltetrazolium bromide (MTT) uptake assays, where MTT is reduced to purple formazan by the mitochondria of living cells. Increase in cell number is detected by augmented MTT metabolization, and decrease in cell number is reflected by a decrease. SW620, HT29 and SW48 cells were plated at a density of 1×10^4 cells per well in 24-well plates and cultured overnight in DMEM supplemented with 10% FBS. The cells were treated with the drug at different concentrations to plot the dose—response curves in all cancer cell lines using in the study. […] After treatment, each well was replaced with 250 μL of fresh medium containing MTT ([…]) and incubated for 1 hour. The medium was then removed and 500 μL of dimethyl sulfoxide was added to each well. The plate was agitated in the dark for 5 minutes to dissolve the MTT-formazan crystals. The absorbance of the samples was recorded at 562 nm in a multi-well plate reader (BMG labtech). Results were plotted as the mean values of quadruplicates from a representative experiment that was repeated at least two independent times.\n(§7) Combination index values less than 1 indicate synergism, values equal to 1 indicate an additive effect, whereas values greater than 1 indicate antagonism. Combination index values from three independent experiments were generated."}, "[9]": {"test_system": "SW620 cells", "assay": "MTT metabolization, SW620 cell proliferation", "format": "cell-based", "protocol": "as §5, §6, §7"}, "[10]": {"test_system": "SW620, HT29 and SW48 cells", "assay": "MTT metabolization, colorectal cancer cell lines (IC50 dose, line not specified)", "format": "cell-based", "details": "dose used for time-response curve", "protocol": "as §6"}, "[11]": {"test_system": "SW620 cells", "assay": "Cell cycle analysis by flow cytometry (propidium iodide), SW620", "format": "cell-based", "details": "500 nM, 24 h", "protocol": "as §2, §3"}, "[12]": {"test_system": "phosphorylated γH2AX in SW620 cells", "assay": "Western blot of DNA damage marker phosphorylated γH2AX, SW620", "format": "cell-based", "details": "500 nM, time dependent up to 24 h", "protocol": "as §1"}, "[13]": {"test_system": "pS6, AKT, Src and Lck in SW620 cells", "assay": "Phospho-kinase dot blot array and Western blot, SW620", "format": "cell-based", "details": "500 nM, at 6 hours or 12 hours", "protocol": "as §1"}, "[14]": {"details": "doses in the submicromolar (nanomolar) range"}}, "data": [{"compound": "C[C@]12O[C@H](C[C@H](O)[C@H]1O)n1c3ccccc3c3c4c(c5c6ccccc6n2c5c31)C(=O)NC4=O", "note": "[Formula (III)]", "values": [{"measurement": "phosphorylation/activation status of pS6 and Src", "setting": "[1]", "result": "inhibited"}, {"measurement": "effect on cell cycle", "setting": "[2]", "result": "strong arrest in G2/M phase"}, {"measurement": "apoptosis (Annexin staining)", "setting": "[3]", "result": "induction of apoptosis"}, {"measurement": "anti-tumoral activity in vivo", "setting": "[4]", "result": "anti-tumoral activity"}, {"measurement": "toxicities in vivo", "setting": "[4]", "result": "no evidence of toxicities"}, {"measurement": "affinity towards and inhibition of kinase activity", "setting": "[5]", "result": "nanomolar and subnanomolar range"}, {"measurement": "apoptosis (Annexin staining)", "setting": "[6]", "result": "induction of apoptosis"}, {"measurement": "phosphorylated levels of γH2AX (DNA damage)", "setting": "[7]", "result": "increase in the phosphorylated levels of γH2AX"}, {"measurement": "half-maximal inhibitory effect (MTT metabolization)", "setting": "[8]", "result": "nanomolar range"}, {"measurement": "growth inhibition", "setting": "[8]; [14]", "result": "more than 80%"}, {"measurement": "effect on proliferation compared with other inhibitors", "setting": "[8]; vs lapatinib, sunitinib, crizotinib, BEZ235, NVP-BSK805, dasatinib", "result": "strong effect"}, {"measurement": "half-maximal inhibitory effect (MTT metabolization)", "setting": "[9]", "result": "nanomolar range"}, {"measurement": "growth inhibition", "setting": "[9]; [14]", "result": "more than 80%"}, {"measurement": "effect on proliferation compared with other inhibitors", "setting": "[9]; vs lapatinib, sunitinib, crizotinib, BEZ235, NVP-BSK805, dasatinib, 0 to 2 μM, 72 h", "result": "strong effect"}, {"measurement": "IC50", "setting": "[10]", "result": 0.5, "unit": "µM"}, {"measurement": "effect on cell cycle", "setting": "[11]", "result": "strong arrest in G2/M phase"}, {"measurement": "phosphorylated levels of γH2AX (DNA damage)", "setting": "[12]", "result": "increase in the phosphorylated levels of γH2AX"}, {"measurement": "phosphorylation/activation status of kinases pS6, AKT, Src and Lck", "setting": "[13]", "result": "strongly inhibited"}]}]}
